Earlier results as cited in US10954181B2, “Process for selectively recovering a phenolic compound from feedstock comprising bio-crude and/or bio-oil” (Research Triangle Institute, priority 2018, dated 2021).

Settings: 25° C., in water; phenolic compounds present in biocrude
In the case of `CCc1ccc(O)c(OC)c1` [Ethylguaiacol], the “pKa at 25° C. (in water)” value is given as 10.3.
In the case of `COc1cc(CC(C)=O)ccc1O` [Guaiacylacetone], the “pKa at 25° C. (in water)” value is given as 9.88.
For `Cc1cc(C)c(O)cc1C` [2,4,5-trimethylphenol], the “pKa at 25° C. (in water)” value is listed as 10.57.
In the case of `C=CCc1ccc(O)c(OC)c1` [Eugenol], the “pKa at 25° C. (in water)” value is listed as 10.19.
For Benzenediol (catechol), the “pKa at 25° C. (in water)” value is given as 9.96.
In the case of `CCc1cccc(O)c1` [3-ethylphenol], the “pKa at 25° C. (in water)” value is given as 9.9.
In the case of `O=C(CO)c1ccccc1` [Hydroxyacetophenone], the “pKa at 25° C. (in water)” value is listed as 10.16.
For `CCc1ccccc1O` [2-ethylphenol], the “pKa at 25° C. (in water)” value is given as 10.27.
For `COc1ccccc1O` [Guaiacol], the “pKa at 25° C. (in water)” value is given as 9.98.
In the case of `Cc1cccc(O)c1C` [2,3-dimethylphenol], the “pKa at 25° C. (in water)” value is listed as 10.42.
For `Cc1cccc(C)c1O` [2,6-dimethylphenol], the “pKa at 25° C. (in water)” value is listed as 10.66.
For `Cc1cc(C)c(O)c(C)c1` [2,4,6-trimethylphenol], the “pKa at 25° C. (in water)” value is given as 10.88.
In the case of `Cc1ccc(O)c(C)c1` [2,4-dimethylphneol], the “pKa at 25° C. (in water)” value is given as 10.6.
For `Cc1cc(C)cc(O)c1` [3,5-dimethylphenol], the “pKa at 25° C. (in water)” value is given as 10.38.
In the case of `C=CCc1cc(C)ccc1O` [2-allyl-4-methylphenol], the “pKa at 25° C. (in water)” value is given as 10.59.
In the case of `COc1cc(CC(=O)O)ccc1O` [Homovanillic acid], the “pKa at 25° C. (in water)” value is given as 4.36.
In the case of `CCCc1ccc(O)cc1` [4-propylphenol], the “pKa at 25° C. (in water)” value is given as 9.98.
In the case of `CCCc1ccc(O)c(OC)c1` [Propylguaiacol (Dihydroeugenol), Propylguaiacol], the “pKa at 25° C. (in water)” value is given as 10.29.
For `Cc1ccc(O)c(O)c1` [4-methylcatechol], the “pKa at 25° C. (in water)” value is listed as 9.91.

Same assay, conditions: Table 1, chemical information of targeted methoxyphenols
For `CCc1ccc(O)c(OC)c1` [Ethylguaiacol], the pKa is listed as 10.3.
For `COc1ccccc1O` [Guaiacol], the pKa is given as 9.98.
In the case of `CCCc1ccc(O)c(OC)c1` [Propylguaiacol (Dihydroeugenol), Propylguaiacol], the pKa is given as 10.29.
